# Patent US20110318266A1, “PHTHALIMIDE DERIVATIVE METABOTROPIC GLUTAMATE R4 LIGANDS” (priority 2008, published 2011)
# Tests used:
# mGluR4 [1] = molecular target: T1, mGluR4 (Homo sapiens, UniProt Q14833); test: Fluorescent Plate Imaging Reader (FLIPR) Assay for mGluR4 Potentiators; format: cell-based; design: expressed in transfected cells; settings: for Emax: maximal activity relative to response with saturating concentration (10 uM) of agonist L-AP4, read-out: mGlu4 FLIPR % Max Efficacy; for EC50: potentiator response with EC10 concentration of L-AP4 (30 nM), inflection point of the curve, read-out: mGluR4 FLIPR Potency
# Experimental: Cells are grown in Corning T162 cm^2 flasks in DMEM growth media at 37° C. and 5% CO2. Growth media contains: Gibco DMEM supplemented with 10% defined FBS, 1% GlutaMax −1, 1% sodium pyruvate, 1% NEAA, 1% Pen/Strep, 250 ug/ml zeocin, 25 mM HEPES, 0.1% 2-Mercaptoethanol, 600 ug/ml Hygromycin B, 7.5 ug/ml blasticidin, and 5 ug/ml puromycin.
# The day prior to the experiment the cells were plated in growth medium (minus glutamine) at 50K cells/well into Becton-Dickinson 384-well PDL-coated plates using a Labsystems Multidrop (0.1 ml/well). The cells are grown overnight at 37° C. and 6% CO2.
# The following day, the cells are washed with Assay Buffer at 37° C. using a Skatron EMBLA cell washer (3×100 μl, aspiration 3 mm from bottom will leave 30 μl of buffer in each well). Assay buffer is Hanks balanced salt solution with 20 mM HEPES, 2.5 mM probenecid and 0.1% BSA.
# Fluorescent dye, 30 μl of the diluted Fluo-4-AM, is added to each well of the plate. The Fluo-4-AM solution is added to achieve a final concentration in the assay of 2 uM Fluo-4-AM, 0.02% pluronic acid and 1% FBS. The assay plates are placed back into the 6% CO2 incubator and incubated at 37° C. for 60 min. The 384-well plates are washed with Assay Buffer at 37° C. on using a cell washer (3×100 μl, aspiration 3 mm from bottom, will leave 30 μl of buffer in each well). The experimental run is initiated and after 30 sec a dose of test compound is applied. The fluorescent response elicited by test compound is monitored for 5 min, any positive response detected at this stage is attributed to agonist properties of the test compound. At this point an EC10 concentration of the mGluR4 agonist L-AP4 ((S)-2-amino-4-phosphonobutanoate) (final concentration 30 nM) is added and the fluorescent response is monitored for an additional 3 minutes, any positive response detected at this stage is attributed to potentiator properties of the test compound.
# Controls for the assay include a no compound control, a positive control which is a saturating concentration, 10 uM, of the agonist L-AP4. A 10 point dose response, with either 2-fold or 3-fold dilution steps, is performed and curve fitting algorithms, suitable for a sigmoidal dose response relationship, are used to fit the data. The inflection point of the curve provides a measure of compound potency.
# A comparison of the maximal level of activity achieved for a test compound, relative to the response achieved with a saturating concentration of the agonist L-AP4 provides a measure of compound efficacy.
# mGluR4 [2] = molecular target: T1, mGluR4; test: mGluR4 Binding Assay; design: expressed in transfected cells; host or cells: CHO cells; settings: membranes from CHO cells expressing human mGluR4; 20 uM L-AP4; 7 nM radiotracer [3H]-N-(4-{[(2-Chlorophenyl)amino]sulfonyl}phenyl)pyridine-2-carboxamide
# Experimental: Membranes were prepared from CHO cells expressing the human mGluR4 receptor. Cells were harvested using trypsin and then washed in assay buffer, assay buffer contains 50 mM HEPES, 1 mM EDTA and protease inhibitors (Boehringer Mannheim catalog #1 836 170). Harvested cells were pelleted by centrifugation and stored at −80° C. for a minimum of 12 hours. Cells were resuspended in assay buffer and lysed by a polytron, a low speed spin, 2000×g for 10 min, was used to recover unbroken cells for additional treatment using the polytron. The cleared supernatant from the low speed spins was subjected to a high speed spin, 96,000×g for 1 hour. The membrane pellet from the high speed spin was resuspended in assay buffer and used in the mGluR4 binding assay.
# The binding assay follows a standard filtration binding paradigm. The binding buffer consists of 20 mM HEPES, 100 mM NaCl and 3 mM MgCl2, the pH of the buffer is 7.4. The assay is performed in a 96-well format with each well containing test compound, 25 to 50 ug of membrane protein, 20 uM L-AP4, and 7 nM radiotracer, [^3H]—N-(4-{[(2-Chlorophenyl)amino]sulfonyl}phenyl)pyridine-2-carboxamide, which is disclosed in commonly owned U.S. patent application docket no.
# The binding reaction is incubated at room temperature for 1 hour, and then is passed through GF/B filter that was presoaked with 0.5% PEI. The cell membranes are collected on the filter and then washed five times with ˜5 ml ice cold binding buffer that contains 0.01% BSA. The washed filter plate is dried for 30 minutes at 37° C., scintillation fluid is added, and the amount of filter bound radioactivity is determined using a TopCount instrument. […] To determine the level of non-specific binding for the radiotracer [^3H]—N-(4-{[(2-Chlorophenyl)amino]sulfonyl}phenyl)pyridine-2-carboxamide, 5 uM of unlabeled [^3H]—N-(4-{[(2-Chlorophenyl)amino]sulfonyl}phenyl)pyridine-2-carboxamide is added to determine the level of non-specific binding. […]
# T1 sequence (Q14833 33-912): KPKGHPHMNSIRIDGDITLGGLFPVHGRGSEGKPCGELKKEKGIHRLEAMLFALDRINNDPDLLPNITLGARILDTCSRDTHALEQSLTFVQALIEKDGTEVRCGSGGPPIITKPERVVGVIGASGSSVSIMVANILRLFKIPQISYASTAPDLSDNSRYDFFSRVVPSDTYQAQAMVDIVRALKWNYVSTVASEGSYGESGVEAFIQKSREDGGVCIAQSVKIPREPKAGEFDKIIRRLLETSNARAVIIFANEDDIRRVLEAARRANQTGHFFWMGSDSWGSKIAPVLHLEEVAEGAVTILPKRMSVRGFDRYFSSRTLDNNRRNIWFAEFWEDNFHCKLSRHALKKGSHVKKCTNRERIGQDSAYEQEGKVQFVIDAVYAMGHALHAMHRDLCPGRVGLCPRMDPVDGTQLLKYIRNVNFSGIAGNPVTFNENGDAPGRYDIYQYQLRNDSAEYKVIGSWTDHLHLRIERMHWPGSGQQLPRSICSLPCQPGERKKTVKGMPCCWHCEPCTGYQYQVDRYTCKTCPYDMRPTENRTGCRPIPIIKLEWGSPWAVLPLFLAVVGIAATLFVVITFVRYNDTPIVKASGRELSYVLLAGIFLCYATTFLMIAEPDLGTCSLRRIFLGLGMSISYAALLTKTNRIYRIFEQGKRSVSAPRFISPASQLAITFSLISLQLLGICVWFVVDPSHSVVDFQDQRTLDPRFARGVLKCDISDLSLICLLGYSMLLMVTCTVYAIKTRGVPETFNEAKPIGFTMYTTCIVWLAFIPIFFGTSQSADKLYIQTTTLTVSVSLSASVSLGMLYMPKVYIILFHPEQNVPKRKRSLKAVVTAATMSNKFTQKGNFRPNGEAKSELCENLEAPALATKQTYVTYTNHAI
SMILES,Emax (mGluR4 [1]),EC50 (mGluR4 [1]),IC50 (mGluR4 [2])
"O=C(Nc1ccc(N2C(=O)c3ccccc3C2=O)cc1)c1ccccn1 [Example 1, N-[4-(1,3-dioxo-1,3-dihydro-2H-isoindol-2-yl)phenyl]pyridine-2-carboxamide]",52%,341 nM,712 nM
"Cc1cccc2c1C(=O)N(c1ccc(NC(=O)c3ccccn3)cc1Cl)C2=O [Example 13, N-[3-chloro-4-(4-methyl-1,3-dioxo-1,3-dihydro-2H-isoindol-2-yl)phenyl]pyridine-2-carboxamide]",125%,43.6 nM,
"Cc1cccc2c1C(=O)N(c1ccc(NC(=O)c3ccccn3)cc1Br)C2=O [Example 29, N-[3-bromo-4-(4-methyl-1,3-dioxo-1,3-dihydro-2H-isoindol-2-yl)phenyl]pyridine-2-carboxamide]",109%,101 nM,12 nM
"O=C(Nc1ccc(N2C(=O)c3cccc(F)c3C2=O)c(Cl)c1)c1ccccn1 [Example 10, N-[3-chloro-4-(4-fluoro-1,3-dioxo-1,3-dihydro-2H-isoindol-2-yl)phenyl]pyridine-2-carboxamide]",110%,50.4 nM,
"Cc1cc(NC(=O)c2ccccn2)ccc1N1C(=O)c2ccccc2C1=O [Example 3, N-[4-(1,3-dioxo-1,3-dihydro-2H-isoindol-2-yl)-3-methylphenyl]pyridine-2-carboxamide]",104%,390 nM,1720 nM
